Source: US8772302B2, “GPR 119 agonists” (Cadila Healthcare Limited, priority 2009, dated 2014)
Like-named read-outs stand apart in the source and are kept apart here.

What was measured:
Sprague Dawley rats = assay: Feed intake in Sprague Dawley rats; assay type: in vivo, rat; details: Rattus norvegicus, cumulative feed intake vs vehicle; for inhibition in vivo at 25 mg/kg: ip, intraperitoneal; for inhibition in vivo at 50 mg/kg: oral
Source text: In Vivo Efficacy Studies: Feed Intake in Sprague Dawley Rats:
Sprague Dawley rats of 6-8 week age are used for this experiment they are kept for acclimatization in reversed light/dark cycle for 15 days. Animals will have free access to a standard chow diet and water during acclimatization period. After 15 days reversed light/dark cycle acclimatization animals are trained for fasting induced feed intake for 5 days till they show consistent feed intake. Grouping was done based on the monitored feed intake during the training days. On treatment day each group of animals are dosed with test compound or vehicle by appropriate routes of administration (orally or intraperitoneally). Exactly 30 min. after treatment, measured amount of standard chow diet is provided and recorded as O-min feed offered. Then subsequently 2, 4, 6 and 24 hour after O-min, feed intake is measured and the cumulative feed intakes are calculated. The change in cumulative feed intake as compared to vehicle treated control at each time point is calculated for test compound.

C57/BL6 mice = assay: Oral glucose tolerance test (OGTT) in C57/BL6 mice; assay type: in vivo, mouse; details: Mus musculus, 2 h, serum glucose AUC, single oral dose, glucose load 3 gm/kg, read-out: % reduction in AUC at 50 mg/kg
Description: Oral Glucose Tolerance Tests (OGTT) in C57/BL6 Mice:
C57/BL6 mice of 6-8 week age are used for this experiment. Animals are grouped based on non-fasting serum glucose levels and kept on fasting for overnight (day before OGTT). On the experiment day, […], 30 min post dosing animals are bled for basal glucose level estimation and at the same time glucose load (3 gm/kg) will be administered per orally. Blood is collected at time points corresponding to 20, 40, 60 and 120 min after glucose load administration. Serum is separated for determination of glucose levels and change in area under curve for glucose is calculated and provided in table 4 as % reduction in AUC.

[1] = biological target: T1, recombinant human GPR 119 receptor (Homo sapiens, UniProt Q8TDV5); assay: cAMP assay in stable cell line expressing recombinant human GPR 119 receptor; assay type: cell-based; details: intracellular cAMP
T1 construct: expressed in transfected cells
T1 sequence (Q8TDV5 1-335): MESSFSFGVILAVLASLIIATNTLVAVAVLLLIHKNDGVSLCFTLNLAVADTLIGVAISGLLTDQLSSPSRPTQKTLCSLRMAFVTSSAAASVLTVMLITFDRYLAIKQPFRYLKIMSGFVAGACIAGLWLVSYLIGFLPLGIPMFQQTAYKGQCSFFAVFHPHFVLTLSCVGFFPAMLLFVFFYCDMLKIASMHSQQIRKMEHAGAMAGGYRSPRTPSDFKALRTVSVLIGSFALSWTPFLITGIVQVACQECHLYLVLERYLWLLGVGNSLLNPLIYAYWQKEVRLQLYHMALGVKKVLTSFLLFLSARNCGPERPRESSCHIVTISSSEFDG
Source text: cAMP assay: A stable cell line expressing recombinant human GPR 119 receptor was established and used to investigate the efficacy of the compounds of the invention based on the intracellular levels of cyclic AMP (cAMP) using commercially available cAMP kits. Compounds of the invention produced a concentration dependent increase in cAMP level and EC50 values of representative compounds were provided in table 1.

[2] = 2 hour, read-out: % reduction in food in take, 2 hour
[3] = 4 hour, read-out: % reduction in food in take, 4 hour
[4] = 6 hour, read-out: % reduction in food in take, 6 hour
[5] = 24 hour, read-out: % reduction in food in take, 24 hour

Row | Compound | EC50 [1] [nM] | inhibition in vivo at 25 mg/kg (Sprague Dawley rats; [2]) [%] | inhibition in vivo at 25 mg/kg (Sprague Dawley rats; [3]) [%] | inhibition in vivo at 25 mg/kg (Sprague Dawley rats; [4]) [%] | inhibition in vivo at 50 mg/kg (Sprague Dawley rats; [2]) [%] | inhibition in vivo at 50 mg/kg (Sprague Dawley rats; [3]) [%] | inhibition in vivo at 50 mg/kg (Sprague Dawley rats; [4]) [%] | inhibition in vivo at 50 mg/kg (Sprague Dawley rats; [5]) [%] | inhibition in vivo at 50 mg/kg (C57/BL6 mice) [%] | inhibition in vivo at 25 mg/kg (Sprague Dawley rats; [5]) [%]
1 | CCc1cnc(N2CCC(Oc3ncnc(Oc4ccc(C[C@H]5CO[S@](=O)OC5)cc4)c3C)CC2)nc1 [Example 32, trans-5-(4-((6-((1-(5-ethylpyrimidin-2-yl)piperidin-4-yl)oxy)-5-methylpyrimidin-4-yl)oxy)benzyl)-1,3,2-dioxathiane 2-oxide] | 86 | 50 | 37 | 32 | – | – | – | – | 41 | 18
2 | CCc1cnc(N2CCC(Oc3ncnc(Oc4ccc([C@H]5CO[S@](=O)OC5)cc4)c3C)CC2)nc1 [Example 10, trans-5-(4-((6-((1-(5-ethylpyrimidin-2-yl)piperidin-4-yl)oxy)-5-methylpyrimidin-4-yl)oxy)phenyl)-1,3,2-dioxathiane 2-oxide] | 73.6 | – | – | – | 36 | 29 | 15 | 15 | 29 | –
3 | CC(C)c1noc(C2CCN(c3ncnc(Oc4ccc([C@H]5CO[S@@](=O)OC5)cc4)c3[N+](=O)[O-])CC2)n1 [Example 1, cis-5-(4-((6-(4-(3-isopropyl-1,2,4-oxadiazol-5-yl)piperidin-1-yl)-5-nitropyrimidin-4-yl)oxy)phenyl)-1,3,2-dioxathiane 2-oxide] | 31 | 45 | 24 | 8.5 | – | – | – | – | 23 | 4
4 | Cc1c(Oc2ccc(C[C@H]3CO[S@](=O)OC3)cc2)ncnc1OC1CCN(C(=O)OCC(C)C)CC1 [Example 44, trans-isobutyl 4-((5-methyl-6-(4-((2-oxido-1,3,2-dioxathian-5-yl)methyl)phenoxy)pyrimidin-4-yl)oxy)piperidine-1-carboxylate] | 108 | – | – | – | 38 | 30 | 24 | 7 | 31 | –
5 | Cc1c(Oc2ccc([C@H]3CO[S@](=O)OC3)cc2)ncnc1OC1CCN(C(=O)OCC(C)C)CC1 [Example 28, trans-isobutyl 4-((5-methyl-6-(4-(2-oxido-1,3,2-dioxathian-5-yl)phenoxy)pyrimidin-4-yl)oxy)piperidine-1-carboxylate] | 57 | 67 | 59 | 40 | 24 | 19 | 9 | 2 | 40 | 24
6 | CCOC(=O)N1CCC(Oc2ncnc(Oc3ccc([C@H]4CO[S@@](=O)OC4)cc3)c2C)CC1 [Example 33, cis-ethyl 4-((5-methyl-6-(4-(2-oxido-1,3,2-dioxathian-5-yl)phenoxy)pyrimidin-4-yl)oxy)piperidine-1-carboxylate] | 86 | 70 | 44 | 24 | – | – | – | – | 30 | 21
7 | CCOC(=O)N1CCC(Oc2ncnc(Oc3ccc([C@H]4CO[S@](=O)OC4)cc3)c2C)CC1 [Example 34, trans-ethyl 4-((5-methyl-6-(4-(2-oxido-1,3,2-dioxathian-5-yl)phenoxy)pyrimidin-4-yl)oxy)piperidine-1-carboxylate] | 93 | 45 | 30 | 19 | – | – | – | – | 27 | 10
8 | Cc1c(Oc2ccc([C@H]3CO[S@@](=O)OC3)cc2)ncnc1OC1CCN(C(=O)OCC(C)C)CC1 [Example 27, cis-isobutyl 4-((5-methyl-6-(4-(2-oxido-1,3,2-dioxathian-5-yl)phenoxy)pyrimidin-4-yl)oxy)piperidine-1-carboxylate] | 27 | 35 | 35 | 31 | 23 | 20 | 23 | 5 | 30 | 17

Now those with a lower EC50 [1], led by results:

Row | EC50 [1] [nM] | Compound | inhibition in vivo at 25 mg/kg (Sprague Dawley rats; [2]) [%] | inhibition in vivo at 25 mg/kg (Sprague Dawley rats; [3]) [%] | inhibition in vivo at 25 mg/kg (Sprague Dawley rats; [4]) [%] | inhibition in vivo at 50 mg/kg (Sprague Dawley rats; [2]) [%] | inhibition in vivo at 50 mg/kg (Sprague Dawley rats; [3]) [%] | inhibition in vivo at 50 mg/kg (Sprague Dawley rats; [4]) [%] | inhibition in vivo at 50 mg/kg (Sprague Dawley rats; [5]) [%] | inhibition in vivo at 50 mg/kg (C57/BL6 mice) [%] | inhibition in vivo at 25 mg/kg (Sprague Dawley rats; [5]) [%]
9 | 15 | Cc1c(Oc2ccc([C@H]3CO[S@](=O)OC3)cc2)ncnc1OC1CCN(C(=O)OC(C)(C)C)CC1 [Example 16, trans-tert-butyl 4-((5-methyl-6-(4-(2-oxido-1,3,2-dioxathian-5-yl)phenoxy)pyrimidin-4-yl)oxy)piperidine-1-carboxylate] | 21 | 27 | 10 | – | – | – | – | 34 | –
10 | 13 | Cc1c(Oc2ccc([C@H]3CO[S@@](=O)OC3)cc2)ncnc1OC1CCN(c2nc(C(C)C)no2)CC1 [Example 3, cis-5-(4-((6-((1-(3-isopropyl-1,2,4-oxadiazol-5-yl)piperidin-4-yl)oxy)-5-methylpyrimidin-4-yl)oxy)phenyl)-1,3,2-dioxathiane 2-oxide] | 34 | 25 | 25 | – | – | – | – | 23 | 17
11 | 12 | CCc1cnc(N2CCC(Oc3ncnc(Oc4ccc([C@H]5CO[S@@](=O)OC5)cc4)c3C)CC2)nc1 [Example 9, cis-5-(4-((6-((1-(5-ethylpyrimidin-2-yl)piperidin-4-yl)oxy)-5-methylpyrimidin-4-yl)oxy)phenyl)-1,3,2-dioxathiane 2-oxide] | 44 | 37 | 30 | 25 | 12 | 6 | 2 | 31 | 24
12 | 11 | Cc1c(Oc2ccc([C@H]3CO[S@](=O)OC3)cc2)ncnc1OC1CCN(c2nc(C(C)C)no2)CC1 [Example 4, trans-5-(4-((6-((1-(3-isopropyl-1,2,4-oxadiazol-5-yl)piperidin-4-yl)oxy)-5-methylpyrimidin-4-yl)oxy)phenyl)-1,3,2-dioxathiane 2-oxide] | 40 | 33 | 21 | 30 | 24 | 9.5 | 6 | 31 | –
